From patent publication US20240279202A1 (NURIX THERAPEUTICS, INC., priority 2021, published 2024)

Columns and labels:
[1] = Mouse PK analysis (blood/plasma concentration after oral administration); type: in vivo; conditions: mice; for concentration at 6 h: read-out: Cal. Conc. Total (μM) 6 h
Procedure: Compounds 1, 3, 7, and 42 were formulated and administered at 90 mg/kg to mice by oral gavage (PO). Blood was collected at defined time points (after 1, 2, and 6 hours) after compounds administration to determine PK parameters. Concentration increased through 6 hours. Six hours later mice were sacrificed and splenocytes were isolated and used to prepare protein lysates. Total protein levels were determined in the lysates using the BCA assay according to standard methods. Equal amounts of protein were then analyzed by Western blot to determine the level of ITK expression in each sample. ITK band intensities were measured using Alpha View software and the percent of ITK remaining in each test animal was determined relative to the mean of ITK levels in vehicle control samples.
Compounds 16, 17, and 18 were administered to mice orally. After 6 hours or 24 hours, splenocytes cells were harvested. ITK was evaluated by Western blotting. Plasma concentrations were determined by LC/MS/MS. Plasma samples were protein precipitated by addition of 100 μl of acetonitrile containing 50 ng/ml of internal standard. The resulting mixture was vortexed and centrifuged at 4000 RPM for 5 minutes. An aliquot of the resultant supernatant (75 μl) was added to 75 μl of 0.1% formic acid in water to constitute the final sample for injection. Samples were injected on a Shimadzu Exion LC Binary Gradient AD Pump HLPC system connected to a Sciex QTRAP 6500+mass spectrometer. Five μl of sample was injected onto a Waters Acquity UPLC BEH C18 column 130A (2.1×30 mm, […]) at 40° C. utilizing a flow rate of 700 μl/minute. Mobile Phase A was 0.1% formic acid in water and mobile phase B was 0.1% formic acid in acetonitrile. A linear gradient of 15-95% B over 1.0 minute was used. The mass spectrometer was operated in positive ion electrospray mode with multiple reaction monitoring for maximum sensitivity. Sciex Analyst software (version 1.6.3) was used for LC/MS/MS instrument control and acquisition. Compound concentration was determined against a standard curve of internal standard versus compound peak area ratio. Noncompartmental PK parameters were determined using […] software (version 8.2.0.4383) from Certara. Plasma concentrations from the LC/MS/MS analyses, dose, route of administration, and desired units were utilized for PK parameter calculations. […] FIG. 4C provides the concentration over time of compound 17 following in vivo oral administration in the 6 hour and 24 hour assays.
Cmax, Tmax and AUClast were all calculated using a WinNonLin Phoenix 64 v 8.2.0.4383. Using non-compartmental analysis, Tmax, Cmax and AUClast were determined as follows: • Tmax—Time of maximum observed concentration. • Cmax—Maximum observed concentration, occurring at time Tmax, as defined above. • AUClast—Area under the curve from the time of dosing to the time of the last measurable (positive) concentration (Tlast).

ITK = target: T1, ITK (Homo sapiens, UniProt Q08881); experiment: ITK degradation MSD (Meso Scale Discovery) assay; type: cell-based; parameters: either human Jurkat (Clone E6-1 ATCC TIB-152) or Motl4 (ATCC CRL-1552), were plated; endogenous in cells; host or cells: Jurkat clone E6-1 (ATCC TIB-152) or Molt4 (ATCC CRL-1552); conditions: Jurkat or Molt4 cells, 4 or 6 hrs
T1 sequence (Q08881 1-620): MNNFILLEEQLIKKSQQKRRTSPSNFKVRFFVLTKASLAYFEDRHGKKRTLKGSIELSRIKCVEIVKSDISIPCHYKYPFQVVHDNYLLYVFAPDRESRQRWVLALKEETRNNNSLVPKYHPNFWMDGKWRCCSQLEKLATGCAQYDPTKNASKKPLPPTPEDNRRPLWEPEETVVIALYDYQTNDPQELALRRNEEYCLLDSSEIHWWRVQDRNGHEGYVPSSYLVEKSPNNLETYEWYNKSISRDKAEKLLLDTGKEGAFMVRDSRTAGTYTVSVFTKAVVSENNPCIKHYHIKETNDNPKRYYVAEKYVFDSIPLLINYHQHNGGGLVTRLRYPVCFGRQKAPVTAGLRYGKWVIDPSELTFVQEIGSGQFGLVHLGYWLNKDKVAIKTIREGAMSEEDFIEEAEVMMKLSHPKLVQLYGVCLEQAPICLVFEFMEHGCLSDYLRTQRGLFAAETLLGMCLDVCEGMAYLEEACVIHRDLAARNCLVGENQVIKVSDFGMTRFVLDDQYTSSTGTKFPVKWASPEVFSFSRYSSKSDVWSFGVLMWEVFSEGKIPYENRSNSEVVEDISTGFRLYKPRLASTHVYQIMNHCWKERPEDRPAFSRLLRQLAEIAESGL
Procedure: ITK Degradation MSD (Meso Scale Discovery) Assay Compound dilution series (7-point, 5 fold dilutions in DMSO, rows B-H with replicate in Column 1⁄2, 3⁄4, 5⁄6, 7,8, at 2000× the final required concentrations were prepared in 96 well plates (Falcon, cat. no. 353077). Row A, Column 1-8 were control DMSO. The 2000× solutions ranged from 2 mM to 128 nM (final assay concentration range 1 μM to […]). The 2000× solutions were added to cells in […], for a final DMSO concentration of 0.5% and final assay compound concentration of 1×. For the cells, either human Jurkat (Clone E6-1 ATCC TIB-152) or Motl4 (ATCC CRL-1552), were plated at 1×10^6 cells/mL, 100 μL/well ([…]) in complete RPMI (10% FBS, 1% L-glutamine). Cells were incubated for 4 or 6 hrs at 32° C./6% CO2. Following incubation, plates were centrifuged at 1200 rpm for 5 min. supernatant was removed and 50 μL of cell lysis buffer ((MSD Tris lysis buffer (R60TX), Complete Mini EDTA-free protease inhibitor (Sigma 11836170001), Protease Inhibitor Cocktail (Sigma, P2714), Phosphatase Inhibitor Cocktail 2 and 3 (Sigma, P5726 and P0044), and Benzonase (Sigma, E1014)) was added to each well. Plates were sealed and shook at 4° C. for 30 min. Plates were centrifuged and 45 μL was removed for plate assays. Assay plate preparation: Meso Scale Discovery (MSD) multi-array sm spot 96 well plates (Goat anti-Rabbit L^45-RA), were blocked with 3% BSA blocking buffer (3% Bovine Serum Albumin (Sigma A3059)+TBS 0.2% Tween-20) for 1 hr with gentle rocking at room temperature. Plates were then washed with 200 μL of 1× TBST (TBS 0.2% Tween-20) 3 times. After last wash, liquid was removed and 50 μL per well of capture antibody (abcam ITK Y402-ab32507) was added to plates at a 1:1000 dilution in blocking buffer (above). Plates were sealed and rocked at room temperature for 2 hrs. Plates were then washed 3 times with 200 μL of 1× TBST. After last wash, liquid was removed and 45 μL of cell lysate (from above) was added to each plate. Plates were sealed and rocked overnight at 4° C. Next day, cell lysates were removed, and assay plates were washed 3 times with 200 μL of 1× TBST. After last wash, liquid was removed and detection antibody (CST ITK (2F12) #2380) was added at 50 μL per well at a dilution of 1:1000 in blocking buffer. Plates were sealed and rocked at room temperature for 2 hrs. Plates were washed 3 times with 200 uL of 1× TBST. After last wash, liquid was removed, MSD Mouse anti-Rabbit sulfo tag (R32AC-1) was diluted to 1:1000 in blocking buffer. 50 μL was added to each well on the plate. Plates were sealed and incubated at room temperature for 1 hr. Plates were washed 3 times with 200 μL of 1× TBST. After last wash, liquid was removed and 150 μL of 1× MSD Read Buffer T ([…]) was then added to each well for ECL read out. For reading ECL signal, plate is read on a Meso Scale Discovery (MSD) MESO Sector S 600 plate reader. Percent ITK in then calculated as described below. Percent ITK remaining per sample was calculated as follows: [formula] Using Graphpad Prism, % ITK remaining values were plotted as a function of compound concentration. To determine DC50 and Dmax values, resulting curves were fit to the Prism curve-fitting equation “log(inhibitor) vs response-Variable slope (four parameters)” (reported best fit value IC50 used as DC50).

| Structure (SMILES) | Cal. Conc. Total (μM) 2 h ([1]; 2 h) | concentration at 6 h ([1]; mouse, plasma, oral, 90 mg/kg) [µM] | Dmax (ITK) [%] | concentration at 2 h ([1]; mouse, plasma, oral, 90 mg/kg, 2 h, read-out: Cal. Conc. Total (μM) 2 h) [µM] | DC50 (ITK) [nM] |
| --- | --- | --- | --- | --- | --- |
| C[C@@]12Cc3[nH]nc(C(=O)Nc4cnn([C@H](c5ccccc5)C5CN(C(=O)C6CCN(c7ccc(C(=O)NC8CCC(=O)NC8=O)nc7)CC6)C5)c4)c3C[C@@H]1C2(F)F (stereo partly drawn) [Compound 40, (4aS,5aR)-N-(1-((1S)-(1-(1-(6-((2,6-dioxopiperidin-3-yl)carbamoyl)pyridin-3-yl)piperidine-4-carbonyl)azetidin-3-yl)(phenyl)methyl)-1H-pyrazol-4-yl)-5,5-difluoro-5a-methyl-1,4,4a,5,5a,6-hexahydrocyclopropa[f]indazole-3-carboxamide] | BQL | 0.009 | 46 |  |  |
| C[C@@]12Cc3[nH]nc(C(=O)Nc4cnn([C@H](c5ccccc5)C5CN(C(=O)C6CCN(c7ccc8c(c7)C(=O)N(C7CCC(=O)NC7=O)C8=O)CC6)C5)c4)c3C[C@@H]1C2(F)F (stereo partly drawn) [Compound 38, (4aS,5aR)-N-(1-((1S)-(1-(1-(2-(2,6-dioxopiperidin-3-yl)-1,3-dioxoisoindolin-5-yl)piperidine-4-carbonyl)azetidin-3-yl)(phenyl)methyl)-1H-pyrazol-4-yl)-5,5-difluoro-5a-methyl-1,4,4a,5,5a,6-hexahydrocyclopropafindazole-3-carboxamide] |  | 0.0024 | 84 | 0.0046 | 0.2 |
